Counter-ions that a name gives are not always drawn. The source made the active and inactive calls.
What was measured:
[1] = molecular target: T1, Mitogen-activated protein kinase kinase kinase 5 (Homo sapiens, UniProt Q99683)
T1 sequence (Q99683 whole entry): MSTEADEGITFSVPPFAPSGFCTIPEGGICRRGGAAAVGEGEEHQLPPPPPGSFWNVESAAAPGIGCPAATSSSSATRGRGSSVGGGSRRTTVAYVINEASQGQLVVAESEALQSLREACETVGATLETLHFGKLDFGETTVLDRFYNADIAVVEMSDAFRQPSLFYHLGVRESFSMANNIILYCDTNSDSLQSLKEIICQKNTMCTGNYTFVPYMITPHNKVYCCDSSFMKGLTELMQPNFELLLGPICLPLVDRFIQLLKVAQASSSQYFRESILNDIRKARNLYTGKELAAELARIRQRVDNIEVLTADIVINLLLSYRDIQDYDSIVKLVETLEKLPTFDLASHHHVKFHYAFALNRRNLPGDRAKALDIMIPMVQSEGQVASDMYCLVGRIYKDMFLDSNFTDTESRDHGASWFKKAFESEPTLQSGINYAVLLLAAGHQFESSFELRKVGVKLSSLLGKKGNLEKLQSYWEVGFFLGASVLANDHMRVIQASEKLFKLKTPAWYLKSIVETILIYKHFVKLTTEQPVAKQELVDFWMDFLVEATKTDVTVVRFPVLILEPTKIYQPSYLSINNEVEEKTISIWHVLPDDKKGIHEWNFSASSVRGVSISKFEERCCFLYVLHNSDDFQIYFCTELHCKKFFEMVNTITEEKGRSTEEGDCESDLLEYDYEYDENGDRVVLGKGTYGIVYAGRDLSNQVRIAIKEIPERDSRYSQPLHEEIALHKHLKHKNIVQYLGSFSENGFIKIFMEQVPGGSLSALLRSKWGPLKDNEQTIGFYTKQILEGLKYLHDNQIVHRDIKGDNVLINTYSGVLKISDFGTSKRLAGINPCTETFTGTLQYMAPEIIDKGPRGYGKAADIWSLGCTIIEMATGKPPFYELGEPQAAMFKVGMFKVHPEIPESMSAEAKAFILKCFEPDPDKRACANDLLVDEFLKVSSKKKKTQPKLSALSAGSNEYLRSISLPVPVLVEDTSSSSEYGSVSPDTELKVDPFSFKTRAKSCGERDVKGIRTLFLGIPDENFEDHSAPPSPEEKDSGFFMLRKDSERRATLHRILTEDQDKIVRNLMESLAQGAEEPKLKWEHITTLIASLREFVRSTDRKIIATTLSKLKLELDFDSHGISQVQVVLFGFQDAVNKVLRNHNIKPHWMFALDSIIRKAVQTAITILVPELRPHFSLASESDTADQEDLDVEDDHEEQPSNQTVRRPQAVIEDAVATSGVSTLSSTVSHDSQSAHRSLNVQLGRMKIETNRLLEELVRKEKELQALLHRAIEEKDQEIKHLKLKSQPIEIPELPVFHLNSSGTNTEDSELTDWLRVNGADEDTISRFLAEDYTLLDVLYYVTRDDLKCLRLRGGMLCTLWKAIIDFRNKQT

Ephrin type-B receptor 6 = molecular target: T2, Ephrin type-B receptor 6 (Homo sapiens, UniProt O15197)
T2 sequence (O15197 whole entry): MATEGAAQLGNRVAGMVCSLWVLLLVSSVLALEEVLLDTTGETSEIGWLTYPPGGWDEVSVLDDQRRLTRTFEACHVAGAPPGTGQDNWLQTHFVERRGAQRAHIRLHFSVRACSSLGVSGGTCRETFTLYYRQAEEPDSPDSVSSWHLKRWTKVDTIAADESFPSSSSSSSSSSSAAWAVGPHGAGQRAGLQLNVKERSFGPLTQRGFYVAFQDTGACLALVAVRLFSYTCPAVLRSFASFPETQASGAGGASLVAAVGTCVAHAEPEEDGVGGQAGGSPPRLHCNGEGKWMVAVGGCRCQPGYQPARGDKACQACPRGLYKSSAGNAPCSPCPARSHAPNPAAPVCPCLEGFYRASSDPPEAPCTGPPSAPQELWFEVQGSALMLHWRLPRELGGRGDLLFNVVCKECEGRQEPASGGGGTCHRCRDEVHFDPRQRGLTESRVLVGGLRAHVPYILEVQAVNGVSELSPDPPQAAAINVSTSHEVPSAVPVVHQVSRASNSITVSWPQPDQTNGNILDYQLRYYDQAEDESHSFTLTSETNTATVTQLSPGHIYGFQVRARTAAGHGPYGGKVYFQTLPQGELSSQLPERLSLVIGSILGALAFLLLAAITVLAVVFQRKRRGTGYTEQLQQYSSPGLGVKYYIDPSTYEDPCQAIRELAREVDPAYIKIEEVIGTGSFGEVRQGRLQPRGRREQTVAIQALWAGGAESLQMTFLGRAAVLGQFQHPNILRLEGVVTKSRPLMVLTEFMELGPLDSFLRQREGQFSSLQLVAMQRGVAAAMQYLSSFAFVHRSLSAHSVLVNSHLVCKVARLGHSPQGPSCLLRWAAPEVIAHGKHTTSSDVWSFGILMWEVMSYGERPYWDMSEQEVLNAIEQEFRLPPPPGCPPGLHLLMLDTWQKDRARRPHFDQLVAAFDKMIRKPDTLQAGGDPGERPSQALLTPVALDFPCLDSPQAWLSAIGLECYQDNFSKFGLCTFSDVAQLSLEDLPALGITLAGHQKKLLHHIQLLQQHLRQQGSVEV
Also: in the data inactive means no Kd found up to 30 µM.

SMILES | Kd [1] | Kd (Ephrin type-B receptor 6)
C[C@@H](Oc1cc(C(=O)Nc2ccc(C(=O)N3CCN(C)CC3)cc2)nnc1N)c1c(Cl)ccc(F)c1Cl | > 30 µM (inactive) | > 30 µM (inactive)
C[C@H]1CNCCCN1S(=O)(=O)c1cccc2cncc(F)c12 | > 30 µM (inactive) | > 30 µM (inactive)
CC(=O)c1cnc2ccc(-c3cc(Cl)c(O)c(Cl)c3)nc2c1N[C@H]1CC[C@H](CN(C)C)CC1 | 0.878 µM (active) | 0.521 µM (active)
CCNC(=O)C#Cc1ccc2c(c1)NC(=O)/C2=C(\Nc1ccc(CN(C)C)cc1)c1ccccc1 | > 30 µM (inactive) | > 30 µM (inactive)
C=CC(=O)N1CCC[C@H](n2c(=O)n(-c3ccc(Oc4ccccc4)cc3)c3c(N)ncnc32)C1 | > 30 µM (inactive) | > 30 µM (inactive)
Cc1nc2cc(-c3nn(C(C)C)c4ncnc(N)c34)ccc2o1 | > 30 µM (inactive) | > 30 µM (inactive)
COCc1c(-c2ccc(NC(=O)Nc3cc(C(F)(F)F)ccc3F)c(F)c2)c2c(N)ncnn2c1CN1CCOCC1 | > 30 µM (inactive) | > 30 µM (inactive)
COc1cc(Nc2ncc3c(n2)-c2ccc(Cl)cc2C(c2c(F)cccc2OC)=NC3)ccc1C(=O)O [ALISERTIB] | > 30 µM (inactive) | > 30 µM (inactive)
Cc1nc(NC(=O)N2CCC[C@H]2C(N)=O)sc1-c1ccnc(C(C)(C)C(F)(F)F)c1 [ALPELISIB] | > 30 µM (inactive) | > 30 µM (inactive)
C=CC(=O)Nc1cc2c(Nc3ccc(F)c(Cl)c3)ncnc2cc1C#CC(C)(C)N1CCN(C)CC1 [AV-412 FREE BASE] | > 30 µM (inactive) | > 30 µM (inactive)
COc1cc([C@@H]2c3cc4c(cc3[C@H](O)[C@H]3COC(=O)[C@@H]23)OCO4)cc(OC)c1OC [AXL-1717] | > 30 µM (inactive) | > 30 µM (inactive)
NC(=O)Nc1cc(-c2cccc(F)c2)sc1C(=O)N[C@H]1CCCNC1 [AZD-7762] | > 30 µM (inactive) | 
Cn1cnc2c(F)c(Nc3ccc(Br)cc3F)c(C(=O)NOCCO)cc21 [BINIMETINIB] | > 30 µM (inactive) | > 30 µM (inactive)
Cc1cc(Nc2ncc(Cl)c(Nc3ccccc3S(=O)(=O)C(C)C)n2)c(OC(C)C)cc1C1CCNCC1 [CERITINIB] | > 30 µM (inactive) | > 30 µM (inactive)
COc1c(OCCCN2CCOCC2)ccc2c1N=C(NC(=O)c1cnc(N)nc1)N1CCN=C21 [COPANLISIB] | > 30 µM (inactive) | > 30 µM (inactive)
CCS(=O)(=O)N1CCN(c2ccc(Nc3ncc(C(N)=O)c(NC4CC4)n3)cc2)CC1 [Cerdulatinib Hydrochloride] |  | > 30 µM (inactive)
CC(C)(C)c1nc(-c2cccc(NS(=O)(=O)c3c(F)cccc3F)c2F)c(-c2ccnc(N)n2)s1 [DABRAFENIB] |  | 0.412 µM (active)
Cc1nc2cc(-n3ncc(C(=O)c4cc5ccccc5[nH]4)c3N)ccc2[nH]1 [FGFR INHIBITOR DEBIO 1347] | > 30 µM (inactive) | 0.007 µM
O=C(Nc1nc2cccc(-c3ccc(CN4CCS(=O)(=O)CC4)cc3)n2n1)C1CC1 [FILGOTINIB] | > 30 µM (inactive) | > 30 µM (inactive)
Cc1cccc(-c2nn3c(c2-c2ccnc4ccc(C(N)=O)cc24)CCC3)n1 [GALUNISERTIB] | > 30 µM (inactive) | > 30 µM (inactive)
O=C(Nc1cc(C(F)(F)F)cc(C(F)(F)F)c1)c1cc(Cl)ccc1O [IMD-0354] | > 30 µM (inactive) | > 30 µM (inactive)
CNC(=O)c1cccc2cc(Oc3ccnc4cc(OCC5(N)CC5)c(OC)cc34)ccc12 [LUCITANIB] | > 30 µM (inactive) | > 30 µM (inactive)
CNC(=O)c1nn(C)c2c1C(C)(C)Cc1cnc(Nc3ccc(N4CCN(C)CC4)cc3)nc1-2 [MILCICLIB] | > 30 µM (inactive) | > 30 µM (inactive)
FC(F)(F)c1ccc(/C=C/c2nc(COc3ccc(CCCCn4ccnn4)cc3)co2)cc1 [MUBRITINIB] | > 30 µM (inactive) | > 30 µM (inactive)
COc1ncc(-c2ccc3nccc(-c4ccnnc4)c3c2)cc1NS(=O)(=O)c1ccc(F)cc1F [OMIPALISIB] | > 30 µM (inactive) | > 30 µM (inactive)
Cc1[nH]c(/C=C2\C(=O)Nc3ccccc32)c(C)c1CCC(=O)O [ORANTINIB] | > 30 µM (inactive) | 
CCOc1cc2ncc(C#N)c(Nc3ccc(F)c(Cl)c3)c2cc1NC(=O)/C=C/CN(C)C [PELITINIB] | > 30 µM (inactive) | > 30 µM (inactive)

The next lines start with the values.

Kd [1] | Kd (Ephrin type-B receptor 6) | SMILES
> 30 µM (inactive) | > 30 µM (inactive) | Nc1ncnc2c1c(-c1cccc(OCc3ccccc3)c1)cn2[C@H]1C[C@@H](CN2CCC2)C1 [AEW-541]
2.79 µM (active) | > 30 µM (inactive) | Cc1csc(-c2nnc(Nc3ccc(Oc4ncccc4-c4ccnc(N)n4)cc3)c3ccccc23)c1 [AMG-900]
 | 0.012 µM (active) | O=C(Nc1c[nH]nc1-c1nc2cc(CN3CCOCC3)ccc2[nH]1)NC1CC1 [AT-9283]
> 30 µM (inactive) | > 30 µM (inactive) | Cc1cc(C(=O)NOCCO)c(Nc2ccc(I)cc2F)n(C)c1=O [AZD-8330]
> 30 µM (inactive) | > 30 µM (inactive) | CCn1c(C(=O)N(C2CC2)C2CC2)cc2c3c(ncn3C)c(Nc3cc(C)n(C)n3)nc21 [BMS-911543]
> 30 µM (inactive) | > 30 µM (inactive) | COc1cc2ncnc(Oc3cccc(NC(=O)Nc4cc(C(C)(C)C(F)(F)F)on4)c3)c2cc1OC [CEP-32496]
> 30 µM (inactive) | > 30 µM (inactive) | COCC(=O)NC/C=C/c1ccc2ncnc(Nc3ccc(Oc4ccc(C)nc4)c(C)c3)c2c1 [CP-724714]
> 30 µM (inactive) | > 30 µM (inactive) | C#Cc1cccc(Nc2ncnc3cc(OC)c(OCCCCCCC(=O)NO)cc23)c1 [CUDC-101]
> 30 µM (inactive) | 3.77 µM (active) | CCn1cc(-c2ccnc3[nH]c(-c4cccc(CN(C)C)c4)cc23)c(-c2ccc(NC(=O)N(C)C)cc2)n1 [GSK-1070916]
> 30 µM (inactive) | > 30 µM (inactive) | COc1ccc(S(=O)(=O)N(C(C)=O)c2ccccc2/C=C/c2cc[n+]([O-])cc2)cc1 [HMN-214]
> 30 µM (inactive) | > 30 µM (inactive) | NC1(c2ccc(-c3nc4ccn5c(=O)[nH]nc5c4cc3-c3ccccc3)cc2)CCC1 [MK-2206]
> 30 µM (inactive) | > 30 µM (inactive) | CN(C[C@@H]1COCCO1)S(=O)(=O)Nc1ccc2ccc3ncc(-c4cnn(C)c4)cc3c(=O)c2c1 [MK-2461]
> 30 µM (inactive) | > 30 µM (inactive) | Cn1cc(-c2cnc3ccc4ccc(CS(=O)(=O)NCc5ccccn5)cc4c(=O)c3c2)cn1 [MK-8033]
> 30 µM (inactive) | 0.226 µM (active) | NC(=O)c1c(OCc2c(F)cc(Br)cc2F)nsc1NC(=O)NCCCCN1CCCC1 [OSI-632]
 | > 30 µM (inactive) | CC(=O)NCC(=O)N1[C@@H]2CC[C@H]1c1ccc(Nc3ncc(C(F)(F)F)c(NC4CCC4)n3)cc12 [PF-03814735]

From ChEMBL document CHEMBL3991601, “The target landscape of clinical kinase drugs” (Science, 2017)
